{
  "source": "patent US20150079158A1",
  "about": "“METHOD TO STABILIZE LIPOSOME EMULSIONS FOR BIOCIDAL DELIVERY” (General Electric Company, priority 2012, published 2015)",
  "assay": "HPLC analysis of active degradation after accelerated storage",
  "type": "physicochemical",
  "description": "The degradation of the biocide-containing liposome emulsion can be qualitatively observed by the formation of an insoluble precipitate. Quantitatively, high pressure liquid chromatography (HPLC) analysis was used to determine actives concentrations for samples stored under accelerated storage conditions. The samples that passed 90 days at 35° C. or 30 days at 50° C. were taken to ambient temperature and analyzed. The stability of these liposome emulsions was determined as follows.\nHPLC analysis was executed for active degradation of 5-chloro-2-methyl-4-isothiazolin-3-one and 2-methyl-4-isothiazolin-3-one in the samples after 90 days at 35° C. or 30 days at 50° C.",
  "data": [
    {"smiles": "Cn1sccc1=O", "note": "[2-methyl-4-isothiazolin-3-one]", "values": [
      {"measurement": "active degradation (HPLC)", "result": "less than 10%"}
    ]}
  ]
}
